From patent US20220409631A1, “METHODS OF INDUCING OR ENHANCING FARNESOID X RECEPTOR (FXR)-MEDIATED TRANSCRIPTIONAL RESPONSE” (YALE UNIVERSITY, priority 2019, published 2022) come the findings set out here.

Molecules are shown by their SMILES. “Also recorded” adds a separate entry of the source. Where only a bound is given, the exact number is not on record here.

Assay type in all cases: cell-based
One series has as its target T1, FXR (Homo sapiens, UniProt Q96RI1).
T1 construct: HepG2 cells were stably transfected with either FXR reporter DNA; endogenous in cells; host or cells: HepG2 cells stably transfected with a 3x FXR response element PGL4.2 luciferase reporter
T1 sequence (Q96RI1 1-486): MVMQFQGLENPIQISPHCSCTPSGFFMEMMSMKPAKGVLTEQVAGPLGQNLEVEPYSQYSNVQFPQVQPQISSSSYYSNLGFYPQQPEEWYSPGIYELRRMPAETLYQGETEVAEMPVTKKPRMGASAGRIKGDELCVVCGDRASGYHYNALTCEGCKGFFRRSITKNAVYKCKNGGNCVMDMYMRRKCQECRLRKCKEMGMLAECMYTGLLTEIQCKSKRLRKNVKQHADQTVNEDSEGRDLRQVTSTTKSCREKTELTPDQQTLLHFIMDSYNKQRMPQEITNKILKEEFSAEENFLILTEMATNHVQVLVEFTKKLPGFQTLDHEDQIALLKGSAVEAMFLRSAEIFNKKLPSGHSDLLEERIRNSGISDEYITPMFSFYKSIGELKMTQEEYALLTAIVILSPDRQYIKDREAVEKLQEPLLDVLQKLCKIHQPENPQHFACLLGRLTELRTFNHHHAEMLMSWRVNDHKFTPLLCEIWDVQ
Put plainly: FXR luciferase reporter assay in HepG2 reporter cells. The method, then: FXR luciferase reporter cells—FXR luciferase reporter cells—HepG2 cancer cells were used in the screening study. HepG2 cells were stably transfected with either FXR reporter DNA in which 3 repeated response element ([…])(SEQ ID NO:2) was inserted in-PGL4.2 luciferase reporter plasmid or LXR reporter DNA in which 3 repeated response element ([…])(SEQ ID NO:3) was inserted in PGL4.2 luciferase reporter plasmid. Reporter cells were selected by puromycin (1 ug/mL) in RPMI-1640 medium with 10% FBS.
Luciferase assay—Reporter cells were treated with compounds at 0, 10, 20, 40, and […] for 24h in a 37° C.-CO2 incubator with or without chenodeoxycholic acid (CDCA) for FXR reporter cells or GW3965 for LXR reporter cells. Cells were lysed using luciferase lysis buffer after which luciferase buffer with luciferin was added to generate luminescence. Luminescence was recorded using a luminescence microplate reader.

The target of the next series is T2, ER-α (Homo sapiens, UniProt P03372).
T2 sequence (P03372 1-595): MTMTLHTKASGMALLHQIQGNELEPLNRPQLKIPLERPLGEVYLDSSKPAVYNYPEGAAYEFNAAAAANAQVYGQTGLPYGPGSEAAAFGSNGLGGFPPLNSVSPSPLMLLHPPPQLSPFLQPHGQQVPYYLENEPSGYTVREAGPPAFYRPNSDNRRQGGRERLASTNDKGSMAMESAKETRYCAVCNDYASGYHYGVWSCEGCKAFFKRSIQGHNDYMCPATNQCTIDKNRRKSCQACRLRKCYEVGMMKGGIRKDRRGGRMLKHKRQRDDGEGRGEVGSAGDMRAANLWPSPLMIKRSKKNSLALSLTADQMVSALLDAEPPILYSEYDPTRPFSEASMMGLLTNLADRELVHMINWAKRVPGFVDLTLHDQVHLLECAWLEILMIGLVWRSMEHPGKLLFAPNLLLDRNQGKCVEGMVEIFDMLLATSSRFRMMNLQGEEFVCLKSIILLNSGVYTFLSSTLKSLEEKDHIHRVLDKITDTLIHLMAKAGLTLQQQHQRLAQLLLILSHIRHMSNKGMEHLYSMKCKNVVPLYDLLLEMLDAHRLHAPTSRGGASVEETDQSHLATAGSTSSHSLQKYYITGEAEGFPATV
Put plainly: Hormone receptor signaling pathway selectivity: ER-α mediated transcriptional response. Particulars: with E2; read-out: ER-α with ligand E2 (inhibition IC50).

The target of a further series is ER-β (Homo sapiens, UniProt Q92731). As to the kind of experiment: Hormone receptor signaling pathway selectivity: ER-β. To be noted: with E2; read-out: ER-β with ligand E2 (inhibition IC50).
Another series deals with T3, VDR (Homo sapiens, UniProt P11473).
T3 sequence (P11473 1-427): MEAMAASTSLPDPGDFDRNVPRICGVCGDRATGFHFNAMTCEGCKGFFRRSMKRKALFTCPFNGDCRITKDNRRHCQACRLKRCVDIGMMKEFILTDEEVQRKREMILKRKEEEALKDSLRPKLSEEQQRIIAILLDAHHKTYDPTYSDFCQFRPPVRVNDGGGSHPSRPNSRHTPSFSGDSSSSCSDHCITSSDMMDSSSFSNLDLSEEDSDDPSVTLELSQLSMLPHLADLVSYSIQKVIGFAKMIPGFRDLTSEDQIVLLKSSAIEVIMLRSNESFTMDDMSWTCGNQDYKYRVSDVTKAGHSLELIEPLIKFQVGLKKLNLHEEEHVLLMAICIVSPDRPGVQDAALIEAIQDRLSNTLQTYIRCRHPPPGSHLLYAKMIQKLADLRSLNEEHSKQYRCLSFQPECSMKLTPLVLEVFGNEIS
Put plainly: Hormone receptor signaling pathway selectivity: VDRE (VDR). To be noted: with VD3; read-out: VDRE with ligand VD3 (inhibition IC50).

The target in the next series is T4, AR (Homo sapiens, UniProt P10275).
T4 sequence (P10275 1-920): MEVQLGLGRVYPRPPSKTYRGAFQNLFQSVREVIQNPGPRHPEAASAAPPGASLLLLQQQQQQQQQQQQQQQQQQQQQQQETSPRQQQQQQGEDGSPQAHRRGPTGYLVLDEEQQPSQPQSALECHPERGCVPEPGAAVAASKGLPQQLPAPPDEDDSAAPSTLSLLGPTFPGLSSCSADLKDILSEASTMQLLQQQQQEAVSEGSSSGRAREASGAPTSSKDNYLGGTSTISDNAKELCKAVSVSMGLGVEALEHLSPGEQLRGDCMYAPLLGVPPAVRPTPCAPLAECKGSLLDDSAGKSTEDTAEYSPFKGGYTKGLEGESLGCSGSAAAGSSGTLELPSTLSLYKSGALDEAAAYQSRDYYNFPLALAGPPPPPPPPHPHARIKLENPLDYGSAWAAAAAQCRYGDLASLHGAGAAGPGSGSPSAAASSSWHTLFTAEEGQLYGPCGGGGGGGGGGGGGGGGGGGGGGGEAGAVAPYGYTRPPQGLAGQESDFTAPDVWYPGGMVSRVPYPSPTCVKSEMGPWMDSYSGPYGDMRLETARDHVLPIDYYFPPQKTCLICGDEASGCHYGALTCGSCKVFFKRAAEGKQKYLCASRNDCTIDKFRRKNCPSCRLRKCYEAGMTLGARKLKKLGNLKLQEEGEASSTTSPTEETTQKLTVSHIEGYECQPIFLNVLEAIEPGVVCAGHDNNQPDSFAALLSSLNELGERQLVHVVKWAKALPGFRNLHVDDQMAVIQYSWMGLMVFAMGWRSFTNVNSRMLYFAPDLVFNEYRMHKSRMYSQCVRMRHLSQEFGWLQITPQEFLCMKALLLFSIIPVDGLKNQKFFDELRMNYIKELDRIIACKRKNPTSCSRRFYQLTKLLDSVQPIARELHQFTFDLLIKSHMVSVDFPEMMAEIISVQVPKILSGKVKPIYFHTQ
As to the kind of experiment: Hormone receptor signaling pathway selectivity: AR. Particulars: with DHT; read-out: AR with ligand DHT (inhibition IC50).

For the next series, the system named is CYP7A1. Put plainly: RT-qPCR for FXR target genes in HepG2 cells: CYP7A1. To be noted: concentration of about 35 μM to 45. The method, then: (§1) Real Time Quantitative PCR (RT-qPCR)—Real Time Quantitative PCR (RT-qPCR) for FXR target genes: RNA was extracted from NZZ compounds treated cells using the Roche High Pure RNA isolation kit. cDNA was then generated from RNA samples using Bio-rad iScript Advanced cDNA synthesis kit for RT-qPCR. qPCR was performed using primers as shown in the Table 1 and iTaq™ Universal SYBR® Green Supermix in CFX PCR machine (Bio-rad). Relative mRNA expression was calculated based on the change of the threshold cycle relative to the internal control, (3-actin, using a standard curve generated by purified PCR products.

Another series deals with PPARa. Put plainly: RT-qPCR for FXR target genes in HepG2 cells: PPARa. Particulars: concentration of about 75 μM to 85. The method, then: as §1
The test system of the next series is BACS. As to the kind of experiment: RT-qPCR for FXR target genes in HepG2 cells: BACS. The method, then: as §1
Series [1] has as its system other hormone receptor signaling pathways. As to the kind of experiment: Selectivity for different hormone receptor signaling pathways (panel).

Chain of ER-β (Q92731 whole entry, species assumed): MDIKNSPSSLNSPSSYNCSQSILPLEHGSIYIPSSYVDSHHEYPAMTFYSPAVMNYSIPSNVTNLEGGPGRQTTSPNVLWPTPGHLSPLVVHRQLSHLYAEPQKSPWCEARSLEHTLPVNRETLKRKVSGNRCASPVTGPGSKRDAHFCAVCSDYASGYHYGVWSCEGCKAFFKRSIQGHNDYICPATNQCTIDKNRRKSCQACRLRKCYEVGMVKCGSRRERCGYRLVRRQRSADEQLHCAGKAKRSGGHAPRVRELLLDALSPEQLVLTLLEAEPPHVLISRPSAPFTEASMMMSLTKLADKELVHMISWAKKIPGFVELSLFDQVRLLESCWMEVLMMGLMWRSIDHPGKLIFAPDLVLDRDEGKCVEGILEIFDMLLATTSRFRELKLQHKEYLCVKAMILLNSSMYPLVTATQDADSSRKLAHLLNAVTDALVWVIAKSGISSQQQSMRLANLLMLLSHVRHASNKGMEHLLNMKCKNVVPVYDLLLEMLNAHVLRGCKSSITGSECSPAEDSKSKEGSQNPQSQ

In the case of `C=C(CC[C@@H](C)[C@H]1CC[C@H]2C3=C(C(=O)[C@H](O)[C@]12C)[C@@]1(C)CC[C@@H](O)[C@@H](C)[C@@H]1CC3=O)[C@@H](C)C(=O)O` [compound (I)], the “induction of FXR activity / FXR mediated transcriptional response” value at FXR (HepG2 FXR-luciferase reporter cells) was “act as agonists; also recorded: induce/enhance FXR activity”. The concentration giving a half-maximal response (EC50) on FXR (no ligand added, read-out: FXR (stimulation EC50)) came to 25 µM. Moreover, the IC50 on ER-α, at ER-β, on VDR and at AR was over 80 µM throughout. Besides, the “inhibition of CYP7A1, stronger than by compound (II) or by CDCA” value with CYP7A1 is on record as “about 40%”. In addition, the “PPARa mRNA expression, fold higher than that induced by compound (II)” value with PPARa is “about 2 fold”. Also, in the series on BACS, the “BACS mRNA expression, fold lower than the CDCA induced BACS expression” value is “about 2 fold”. In addition, in [1], the “impact on other hormone receptor signaling pathways” value is reported as “no impact”.
